Assay results reported in US6140330A, “Thiazole derivative” (Otsuka Pharmaceutical Company, Limited, priority 1996, dated 2000).
Each block holds one compound with its values, some of them ahead of it.

Legend:
protein kinase C (PKC) = assay: Protein Kinase C (PKC) Inhibitory Activity; assay type: biochemical; settings: rat brain PKC, H1 histone substrate, 10 μM [γ-32P]ATP, 30° C., 30 minutes
Procedure: (1) Protein Kinase C (PKC) Inhibitory Activity
Method for determining PKC activity:
The purification of PKC using rat's brain soluble fractions was carried out by a method of Kikkawa et al. (cf. Ushio Kikkawa, Yoshimi Takai, Ryoji Minakuchi, Sinichi Inohara and Yasutomi Nishizuka: The Journal of Biological Chemistry, vol. 257, No. 22, pp. 13341-13348 (1982)). PKC activity was determined by the transfer of radio activity from the [γ-^32 P] adenosine triphosphate (ATP) to H1 histone derived from calf thymus in the presence of 20 mM Tris-HCl buffer (pH 7.5), H1 histone derived from calf thymus (200 μg/ml), 10 μM [γ-^32P]ATP, 5 mM magnesium acetate, 8 μg/ml phosphatidyl serine, 2 μg/ml diacylglycerol and 0.3 mM Ca^2+. The test compound was dissolved in dimethylformamide, and the test compound solution was added to the assay system so that the final concentration thereof was adjusted to 0.8%. The reaction mixture was incubated at 30° C. for 30 minutes, and the reaction was quenched with 25% trichloroacetic acid. The acid-insoluble protein was collected on a nitrocellulose membrane by suction filtration. The radio activity of ^32 P was determined by scintillation counter. The PKC inhibitory activity of the test compounds was expressed by IC50, which is a concentration of the test compound to be required to reduce the PKC activity by 50%.

[1] = Rat Kidney Ischemic Re-perfusion Model; assay type: in vivo; settings: for amount of creatine in the blood / amount of urea nitrogen in the blood: in mg/dL (unit assumed)
Procedure: (4) Rat Kidney Ischemic Re-perfusion Model
The right kidney of a SD male rat was taken out, and the left kidney artery was clumped, and then, re-perfused to give a kidney ischemic re-perfusion model. The effect of the compounds of Examples 71, 89 and 100 on the kidney ischemic re-perfusion model was estimated.
The compound of Example 71 was administered intravenously to the rat at a dose of 3 mg/kg 5 minutes before the ischemic. Twenty-four hours later, the blood was collected from the tail vein, and the amounts of creatine and urea nitrogen were determined. The amount of creatine in the blood was 2.19±0.21 (mean±s.e.) in the control group; 1.4±0.11 (mean±s.e.) in the group treated with the compound of Example 71, and the amount of urea nitrogen in the blood was 78.8±5.6 (mean s.e.) in the control group, and 54.1±5.0 (mean±s.e.) in the group treated with the compound of Example 71.
The compound of Example 89 was administered intravenously to the rat at a dose of 3 mg/kg 5 minutes before the ischemic and the re-perfusion. Forty-eight hours later, the blood was collected from the tail vein, and the amounts of creatine and urea nitrogen were determined. The amount of creatine in the blood was 4.31±0.53 (mean±s.e.) in the control group; 2.34±0.46 (mean±s.e.) in the group treated with the compound of Example 89, and the amount of urea nitrogen in the blood was 155.1±15.4 (mean±s.e.) in the control group, and 99.1±16.0 (mean±s.e.) in the group treated with the compound of Example 89.
The compound of Example 100 was administered orally to the rat at a dose of 30 mg/kg one hour before the ischemic. Forty-eight hours later, the blood was collected from the tail vein, and the amounts of creatine and urea nitrogen were determined. The amount of creatine in the blood was 2.48±0.59 (mean±s.e.) in the control group; 1.53±0.20 (mean±s.e.) in the group treated with the compound of Example 100, and the amount of urea nitrogen in the blood was 91.3±20.1 (mean±s.e.) in the control group, and 63.1±10.3 (mean±s.e.) in the group treated with the compound of Example 100.

[2] = Phorbol Ester (TPA)-induced Mouse Auricle Edema, Acanthosis Model; assay type: in vivo; settings: mouse (ICR); for increase in the thickness of auricle: after 24 hours, control 215±40 μm, mean±s.e.
Procedure: (5) Phorbol Ester (TPA)-induced Mouse Auricle Edema, Acanthosis Model
A 200 μg/ml phorbol ester (TPA) (10 μl) was applied to the one side to the ear of a female mouse (ICR). Twenty-four hours later, the thickness of the auricle of the mouse was determined with using a dialthickness gage, and the increase in the thickness of auricle was calculated. A test compound was dissolved in acetone, and the solution of a test compound was applied to the both sides of the ear 30 minutes before the application of TPA.
The compound of Example 88 was applied to the ear at a dose of 20 μl of 0.3% or 1% solution. The increase in the thickness of auricle in the control group is 215±40 μm (mean±s.e.) after 24 hours, while 87±53 μm (mean±s.e.) in the group treated with the compound of Example 88 in 0.3%, and 67±23 μm (mean±s.e.) in the group treated with the compound of Example 88 in 1%.

[3] = Mouse Atopic Dermatitis Model (TNCB-induced increase in auricle thickness); assay type: in vivo; settings: mice (Balb/c), once a day for two weeks
Procedure: (6) Mouse Atopic Dermatitis Model:
1% […] (TNCB), (10 μl) was applied to each side of the ear of female mice (Balb/c), once every two days for 24 days. Twenty-four days later, the mice were grouped, and the auricle thickness of the mouse was determined by using a dial thickness gage, and the increase in the thickness of auricle was calculated. The compounds of Examples 88 and 89 were dissolved in acetone in a concentration of 1%. The compound of Example 182 was dissolved in a mixture of acetone:methanol in a concentration of 0.75%. Twenty-four days after the beginning of the experiment, the solution of a test compound was applied to each side of the ear 30 minutes before and after the application of TNCB, once a day for two weeks.

anti-DNA antibody = assay: Mouse cGVHD (chronic graft-versus-host disease model), anti-DNA antibody in blood by ELISA; assay type: in vivo; settings: mice; for amount of anti-DNA antibody in the blood: mean±s.e.
Procedure: (3) Mouse cGVHD (chromic Graft-versus-host disease model)
Female mice (DBA/2NCrj) were subjected to an operation of cervical vertebra dislocation, and the spleen was taken out to give the spleen cells preparation. The preparation were adjusted to 37.5×10^7 cells/ml, and administered to the BDF1 female mice on the tail vein at a dose of 200 μl per a mouse. Two weeks later, the blood was collected in the absence of heparin, and anti-DNA antibody therein was determined by ELISA.
The compound of Example 182 was administered orally to the mice at a dose of 30 to 50 mg/kg once a day for two weeks, and the effect of the test compound on cGVHD was determined.
The amount of anti-DNA antibody in the blood was determined with OD405. The amounts of anti-DNA antibody were 0.348±0.111 (mean±s.e.) in the control group, 0.255±0.062 (mean±s.e.) in the group treated with the compound of Example 182 at a dose of 30 mg/kg, and 0.094±0.026 (mean±s.e.) in the group treated with the compound of Example 182 at a dose of 50 mg/kg.
Further, the compound of Example 100 was also administered orally to the mice at 30 mg/kg once a day for two weeks, and the effect of the compound on cGVHD was also determined.
The amount of anti-DNA antibody in the blood was determined with OD405. The amounts of anti-DNA antibody were 0.258±0.084 (mean±s.e.) in the control group, and 0.177±0.061 (mean±s.e.) in the group treated with the compound of Example 100 at a dose of 30 mg/kg.

Mouse Collagen Arthritis = assay type: in vivo; settings: orally once a day
Procedure: (2) Mouse Collagen Arthritis
Bovine II-type collagen (provided by Collagen Gijyutsu Kensyukai) (0.1%) was emulsified with Complete Fleund's adjuvant (CFA) (50%) (manufactured by DIFCO, Ltd.), and the emulsion thus obtained was injected intracutaneously to mice at the tail (primary sensitization). Three weeks later, bovine II-type collagen (0.1%) was injected intraperitoneally again to the mice (secondary sensitization). Three weeks later, the swelling of limbs of the mice was observed, and evaluated by four-degree as 0 to 3 each limb. The degree (0 to 3) each limb was added, and the results were used a score of the arthritis. That is, the maximum degree is 12 (degree 3×4 limb). The test compound was administered orally to the mice once a day, which started after two weeks from the primary sensitization.

IC50 (protein kinase C (PKC)): 800 nM
SMILES: CN1CCN(CC2CN(C(=O)/C=C/C(=O)c3ccc(OCC(=O)Nc4nc5ccccc5s4)c(F)c3)CCO2)CC1 (stereo not shown) [Example 71]
amounts of both of creatine and urea nitrogen compared with the control group ([1]; i.v. 3 mg/kg 5 minutes before the ischemic, 24 hours later): significantly reduced | amount of creatine in the blood ([1]; i.v. 3 mg/kg 5 minutes before the ischemic, 24 hours later, control 2.19±0.21, mean±s.e.): 1.4±0.11 | amount of urea nitrogen in the blood ([1]; i.v. 3 mg/kg 5 minutes before the ischemic, 24 hours later, control 78.8±5.6, mean±s.e.): 54.1±5.0

IC50 (protein kinase C (PKC)): 100 nM
SMILES: COc1cc(C(=O)/C=C/C(=O)N2CCC(N3CCN(C)CC3)CC2)ccc1OCC(=O)Nc1nc2ccccc2s1 [Example 88]
increase in auricle thickness compared with the control group ([2]; topical 20 μl of 0.3% or 1% solution): significantly reduced | increase in the thickness of auricle ([2]; topical 20 μl of 0.3% solution): 87±53 μm | increase in the thickness of auricle ([2]; topical 20 μl of 1% solution): 67±23 μm

IC50 (protein kinase C (PKC)): 300 nM
SMILES: COc1cc(C(=O)/C=C/C(=O)N2CCOC(CN3CCN(C)CC3)C2)ccc1OCC(=O)Nc1nc2ccccc2s1 (stereo not shown) [Example 89]
amounts of both of creatine and urea nitrogen compared with the control group ([1]; i.v. 3 mg/kg 5 minutes before the ischemic and the re-perfusion, 48 hours later): significantly reduced | amount of creatine in the blood ([1]; i.v. 3 mg/kg 5 minutes before the ischemic and the re-perfusion, 48 hours later, control 4.31±0.53, mean±s.e.): 2.34±0.46 | amount of urea nitrogen in the blood ([1]; i.v. 3 mg/kg 5 minutes before the ischemic and the re-perfusion, 48 hours later, control 155.1±15.4, mean±s.e.): 99.1±16.0 | inhibition of the increase in the auricle thickness ([3]; topical 1% in acetone): about 25%

IC50 (protein kinase C (PKC)): 300 nM
SMILES: COc1cc(C(=O)/C=C/C(=O)N2CCC(N3CCCN(C)CC3)CC2)ccc1OCC(=O)Nc1nc2ccccc2s1 [Example 100]
anti-DNA antibody in the blood compared with the control group (anti-DNA antibody; orally 30 mg/kg once a day for two weeks): reduced the anti-DNA antibody in the blood | amount of anti-DNA antibody in the blood (anti-DNA antibody; orally 30 mg/kg once a day for two weeks, control 0.258±0.084): 0.177±0.061 OD405 | amounts of both of creatine and urea nitrogen compared with the control group ([1]; orally 30 mg/kg one hour before the ischemic, 48 hours later): reduced | amount of creatine in the blood ([1]; orally 30 mg/kg one hour before the ischemic, 48 hours later, control 2.48±0.59, mean±s.e.): 1.53±0.20 | amount of urea nitrogen in the blood ([1]; orally 30 mg/kg one hour before the ischemic, 48 hours later, control 91.3±20.1, mean±s.e.): 63.1±10.3

IC50 (protein kinase C (PKC)): 600 nM
SMILES: O=C(COc1ccc(C(=O)/C=C/C(=O)N2CCN(O)CC2)cc1C(F)(F)F)Nc1nc2ccccc2s1 [Example 160]
score of arthritis in comparison with the control mice (Mouse Collagen Arthritis; 50 mg/kg): significantly reduced

IC50 (protein kinase C (PKC)): 80 nM
SMILES: COc1cc(OCC(=O)Nc2nc3ccccc3s2)ccc1C(=O)/C=C/C(=O)N1CCC(N2CCCN(C)CC2)CC1 [Example 182]
score of arthritis in comparison with the control mice (Mouse Collagen Arthritis; 30 to 50 mg/kg): significantly reduced | amount of anti-DNA antibody in the blood (anti-DNA antibody; orally 30 mg/kg once a day for two weeks, control 0.348±0.111): 0.255±0.062 OD405 | amount of anti-DNA antibody in the blood (anti-DNA antibody; orally 50 mg/kg once a day for two weeks, control 0.348±0.111): 0.094±0.026 OD405 | anti-DNA antibody in the blood compared with the control group (anti-DNA antibody; orally 30 to 50 mg/kg once a day for two weeks): reduced the anti-DNA antibody in the blood dose-dependently | inhibition of the increase in the auricle thickness ([3]; topical 0.75% in acetone:methanol): about 25%

IC50 (protein kinase C (PKC)): 800 nM
SMILES: Cc1c(OCC(=O)Nc2nc3ccccc3s2)ccc(C(=O)/C=C/C(=O)N2CCC(N3CCCN(C)CC3)CC2)c1C [Example 192]
score of arthritis in comparison with the control mice (Mouse Collagen Arthritis; 50 mg/kg): significantly reduced

IC50 (protein kinase C (PKC)): 300 nM
SMILES: Cc1cc(OCC(=O)Nc2nc3ccccc3s2)ccc1C(=O)/C=C/C(=O)N1CCC(N2CCCN(C)CC2)CC1 [Example 197]
score of arthritis in comparison with the control mice (Mouse Collagen Arthritis; 50 mg/kg): significantly reduced
